Patent publication US12077503B2, “Substituted cyclic amides and their use as herbicides” (FMC CORPORATION, priority 2015, dated 2024)

Key:
Assay type in all cases: in vivo
[1] = tested on: ivy-leaved morning glory (Ipomoea hederacea); assay: Test G Pre-Emergence Protocol; conditions: Ipomoea, pre-emergence, 312 h, evaluated after 13 days
How it was run: (§1)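 Herbicidal effect was rated 13 days post-application on a scale where 100 equals total damage. Spraying took place the day after sowing, using 15.625, 62.5 or 250 g/ha of compound in a 50:50 acetone/water solution with 0.5% Tween 20.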

[2] = tested on: giant foxtail (Setaria faberi); assay: Test G Pre-Emergence Protocol; conditions: Setaria faberi, pre-emergence, 312 h, evaluated after 13 days
How it was run: as §1

[3] = tested on: barnyardgrass (Echinochloa crus-galli); assay: Test G Pre-Emergence Protocol; conditions: Echinochloa crus-galli, pre-emergence, 312 h, evaluated after 13 days
How it was run: as §1

[4] = tested on: redroot pigweed (Amaranthus retroflexus); assay: Test G Pre-Emergence Protocol; conditions: Amaranthus retroflexus, pre-emergence, 312 h, evaluated after 13 days
How it was run: as §1

[5] = tested on: velvetleaf (Abutilon theophrasti); assay: Test G Pre-Emergence Protocol; conditions: Abutilon theophrasti, pre-emergence, 312 h, evaluated after 13 days
How it was run: as §1

[6] = tested on: corn (Zea mays); assay: Test G Pre-Emergence Protocol; conditions: Zea mays, pre-emergence, 312 h, evaluated after 13 days
How it was run: as §1

[7] = tested on: ivy-leaved morning glory (Ipomoea hederacea); assay: Test G Post-Emergence Protocol; conditions: Ipomoea, post-emergence, 312 h, read-out: Morningglory, Ivy-leaved damage rating
How it was run: (§2)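 Eight days post-sowing, plants received a spray of test compound (acetone/water 50:50, 0.5% Tween 20) at 15.625, 62.5 or 250 g/ha. Glasshouse regime thereafter: 24/16 °C, 14 h light, 65% humidity. Assessment after 13 days on a 0–100 damage scale.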

[8] = tested on: giant foxtail (Setaria faberi); assay: Test G Post-Emergence Protocol; conditions: Setaria faberi, post-emergence, 312 h, read-out: Foxtail, Giant damage rating
How it was run: as §2

[9] = tested on: barnyardgrass (Echinochloa crus-galli); assay: Test G Post-Emergence Protocol; conditions: Echinochloa crus-galli, post-emergence, 312 h, read-out: Barnyardgrass damage rating
How it was run: as §2

[10] = tested on: redroot pigweed (Amaranthus retroflexus); assay: Test G Post-Emergence Protocol; conditions: Amaranthus retroflexus, post-emergence, 312 h, read-out: Pigweed, Redroot damage rating
How it was run: as §2

[11] = tested on: velvetleaf (Abutilon theophrasti); assay: Test G Post-Emergence Protocol; conditions: Abutilon theophrasti, post-emergence, 312 h, read-out: Velvetleaf damage rating
How it was run: as §2

[12] = tested on: corn (Zea mays); assay: Test G Post-Emergence Protocol; conditions: Zea mays, post-emergence, 312 h, read-out: Corn damage rating
How it was run: as §2

[13] = 15.625 g ai/ha, evaluated after 13 days (100=total damage to plant; 0=no damage to plant)
[14] = 62.5 g ai/ha, evaluated after 13 days, 100=total damage to plant, 0=no damage to plant
[15] = 250 g ai/ha, evaluated after 13 days, 100=total damage to plant, 0=no damage to plant

Cc1c(F)cccc1NC(=O)[C@@H]1C(=O)N(C)C[C@H]1c1cc(Cl)c(F)c(Cl)c1 (racemic) [Compound 1792]
90%: pest or weed control at 250 g/ha ([2]; 250 g ai/ha, read-out: Foxtail, Giant damage rating (100=total damage to plant; 0=no damage to plant))
70%: pest or weed control at 62.5 g/ha ([3]; 62.5 g ai/ha, 100=total damage to plant, 0=no damage to plant, read-out: Barnyardgrass damage rating) | pest or weed control at 15.625 g/ha [8, 13] | pest or weed control at 62.5 g/ha [9, 14] | pest or weed control at 250 g/ha [9, 15]
80%: pest or weed control at 15.625 g/ha ([2]; 15.625 g ai/ha, read-out: Foxtail, Giant damage rating (100=total damage to plant; 0=no damage to plant)) | pest or weed control at 62.5 g/ha ([2]; 62.5 g ai/ha, 100=total damage to plant, 0=no damage to plant, read-out: Foxtail, Giant damage rating) | pest or weed control at 250 g/ha ([3]; 250 g ai/ha, read-out: Barnyardgrass damage rating (100=total damage to plant; 0=no damage to plant)) | pest or weed control at 62.5 g/ha [8, 14] | pest or weed control at 250 g/ha [8, 15]
0%: pest or weed control at 15.625 g/ha ([1]; 15.625 g ai/ha, read-out: Morningglory, Ivy-leaved damage rating (100=total damage to plant; 0=no damage to plant)) | pest or weed control at 62.5 g/ha ([1]; 62.5 g ai/ha, 100=total damage to plant, 0=no damage to plant, read-out: Morningglory, Ivy-leaved damage rating) | pest or weed control at 250 g/ha ([1]; 250 g ai/ha, read-out: Morningglory, Ivy-leaved damage rating (100=total damage to plant; 0=no damage to plant)) | pest or weed control at 15.625 g/ha ([4]; 15.625 g ai/ha, read-out: Pigweed, Redroot damage rating (100=total damage to plant; 0=no damage to plant)) | pest or weed control at 62.5 g/ha ([4]; 62.5 g ai/ha, 100=total damage to plant, 0=no damage to plant, read-out: Pigweed, Redroot damage rating) | pest or weed control at 250 g/ha ([4]; 250 g ai/ha, read-out: Pigweed, Redroot damage rating (100=total damage to plant; 0=no damage to plant)) | pest or weed control at 15.625 g/ha ([5]; 15.625 g ai/ha, read-out: Velvetleaf damage rating (100=total damage to plant; 0=no damage to plant)) | pest or weed control at 62.5 g/ha ([5]; 62.5 g ai/ha, 100=total damage to plant, 0=no damage to plant, read-out: Velvetleaf damage rating) | pest or weed control at 250 g/ha ([5]; 250 g ai/ha, read-out: Velvetleaf damage rating (100=total damage to plant; 0=no damage to plant)) | plant injury at 15.625 g/ha ([6]; 15.625 g ai/ha, read-out: Corn damage rating (100=total damage to plant; 0=no damage to plant)) | pest or weed control at 15.625 g/ha [10, 13] | pest or weed control at 62.5 g/ha [10, 14] | pest or weed control at 250 g/ha [10, 15] | pest or weed control at 15.625 g/ha [11, 13]
60%: plant injury at 250 g/ha [12, 15]
20%: plant injury at 62.5 g/ha ([6]; 62.5 g ai/ha, 100=total damage to plant, 0=no damage to plant, read-out: Corn damage rating) | pest or weed control at 62.5 g/ha [11, 14] | plant injury at 15.625 g/ha [12, 13]
40%: pest or weed control at 250 g/ha [7, 15] | pest or weed control at 250 g/ha [11, 15] | plant injury at 62.5 g/ha [12, 14]
50%: plant injury at 250 g/ha ([6]; 250 g ai/ha, read-out: Corn damage rating (100=total damage to plant; 0=no damage to plant))
30%: pest or weed control at 15.625 g/ha ([3]; 15.625 g ai/ha, read-out: Barnyardgrass damage rating (100=total damage to plant; 0=no damage to plant)) | pest or weed control at 62.5 g/ha [7, 14] | pest or weed control at 15.625 g/ha [9, 13]
10%: pest or weed control at 15.625 g/ha [7, 13]
